In PMC10008561 (Nature Communications, 2023):
Several values for one entry are separate records, joined by “and”; a condition that tells them apart may be missing. Equal values may be shown once. Read-outs that look alike come from different tables or passages of the source.

How the values were obtained:
Experiment in all cases: cell-based
[1] = biological target: T1, human KOR (β-arrestin 2) (Homo sapiens, UniProt P41145, R274A); settings: HEK-293T
T1 construct: expressed in transfected cells; host or cells: HEK293T

[2] = biological target: T2, human KOR (β-arrestin 2) (Homo sapiens, UniProt P41145, F283A); settings: HEK-293T
T2 construct: expressed in transfected cells; host or cells: HEK293T

[3] = biological target: T3, human KOR (β-arrestin 2) (Homo sapiens, UniProt P41145, F114L); settings: HEK-293T
T3 construct: expressed in transfected cells; host or cells: HEK293T

[4] = biological target: T4, human KOR (β-arrestin 2) (Homo sapiens, UniProt P41145, T94V); settings: HEK-293T
T4 construct: expressed in transfected cells; host or cells: HEK293T

[5] = biological target: T5, human KOR (β-arrestin 2) (Homo sapiens, UniProt P41145, L253A); settings: HEK-293T
T5 construct: expressed in transfected cells; host or cells: HEK293T

[6] = biological target: T6, human KOR (β-arrestin 2) (Homo sapiens, UniProt P41145, K200A); settings: HEK-293T
T6 construct: expressed in transfected cells; host or cells: HEK293T

[7] = biological target: T7, human KOR (β-arrestin 2) (Homo sapiens, UniProt P41145, D266A); settings: HEK-293T
T7 construct: expressed in transfected cells; host or cells: HEK293T

[8] = biological target: T8, human KOR (β-arrestin 2) (Homo sapiens, UniProt P41145, R170A); settings: HEK-293T
T8 construct: expressed in transfected cells; host or cells: HEK293T

[9] = biological target: T9, human KOR (β-arrestin 2) (Homo sapiens, UniProt P41145, R271A); settings: HEK-293T
T9 construct: expressed in transfected cells; host or cells: HEK293T

[10] = biological target: T10, human KOR (β-arrestin 2) (Homo sapiens, UniProt P41145, D155A); settings: HEK-293T
T10 construct: expressed in transfected cells; host or cells: HEK293T

[11] = biological target: T11, human KOR (β-arrestin 2) (Homo sapiens, UniProt P41145, Y139L); settings: HEK-293T
T11 construct: expressed in transfected cells; host or cells: HEK293T

[12] = biological target: T12, human KOR (β-arrestin 2) (Homo sapiens, UniProt P41145, K227A); settings: HEK-293T
T12 construct: expressed in transfected cells; host or cells: HEK293T

[13] = biological target: T13, human KOR (β-arrestin 2) (Homo sapiens, UniProt P41145, E297A); settings: HEK-293T
T13 construct: expressed in transfected cells; host or cells: HEK293T

[14] = biological target: T14, human KOR (β-arrestin 2) (Homo sapiens, UniProt P41145, R257A); settings: HEK-293T
T14 construct: expressed in transfected cells; host or cells: HEK293T

[15] = biological target: T15, human KOR (β-arrestin 2) (Homo sapiens, UniProt P41145, Q115N); settings: HEK-293T
T15 construct: expressed in transfected cells; host or cells: HEK293T

[16] = biological target: T16, human KOR (β-arrestin 2) (Homo sapiens, UniProt P41145, D334A); settings: HEK-293T
T16 construct: expressed in transfected cells; host or cells: HEK293T

[17] = biological target: T17, human KOR (β-arrestin 2) (Homo sapiens, UniProt P41145, Y320L); settings: HEK-293T
T17 construct: expressed in transfected cells; host or cells: HEK293T

[18] = biological target: T18, human KOR (β-arrestin 2) (Homo sapiens, UniProt P41145, G319L); settings: HEK-293T
T18 construct: expressed in transfected cells; host or cells: HEK293T

[19] = biological target: T19, human KOR (β-arrestin 2) (Homo sapiens, UniProt P41145, N141A); settings: HEK-293T
T19 construct: expressed in transfected cells; host or cells: HEK293T

[20] = biological target: T20, human KOR (β-arrestin 2) (Homo sapiens, UniProt P41145, N322A); settings: HEK-293T
T20 construct: expressed in transfected cells; host or cells: HEK293T

[21] = biological target: T21, human KOR (β-arrestin 2) (Homo sapiens, UniProt P41145)
T21 construct: expressed in transfected cells; host or cells: HEK293T

[22] = biological target: T22, human KOR (Gi2) (Homo sapiens, UniProt P41145, Q115N)
T22 construct: expressed in transfected cells; host or cells: HEK293T

[23] = biological target: T23, human KOR (Gi2) (Homo sapiens, UniProt P41145, R257A)
T23 construct: expressed in transfected cells; host or cells: HEK293T

[24] = biological target: T24, human KOR (Gi2) (Homo sapiens, UniProt P41145, D155A)
T24 construct: expressed in transfected cells; host or cells: HEK293T

[25] = biological target: T25, human KOR (Gi2) (Homo sapiens, UniProt P41145, R271A)
T25 construct: expressed in transfected cells; host or cells: HEK293T

[26] = biological target: T26, human KOR (Gi2) (Homo sapiens, UniProt P41145, N141A)
T26 construct: expressed in transfected cells; host or cells: HEK293T

[27] = biological target: T27, human KOR (Gi2) (Homo sapiens, UniProt P41145, Y320L)
T27 construct: expressed in transfected cells; host or cells: HEK293T

[28] = biological target: T28, human KOR (Gi2) (Homo sapiens, UniProt P41145, R170A); settings: HEK-293T
T28 construct: expressed in transfected cells; host or cells: HEK293T

[29] = biological target: T29, human KOR (Gi2) (Homo sapiens, UniProt P41145, D266A)
T29 construct: expressed in transfected cells; host or cells: HEK293T

[30] = biological target: human KOR (Homo sapiens, UniProt P41145); parameters: expressed in transfected cells; host or cells: HEK 293T (ATCC, CRL-3216); settings: HEK-293T
[31] = read-out: KOR WT_Gi response (Figure S4D)
[32] = read-out: cAMP response (Figure S4C)

T24 sequence (P41145 whole entry D155A): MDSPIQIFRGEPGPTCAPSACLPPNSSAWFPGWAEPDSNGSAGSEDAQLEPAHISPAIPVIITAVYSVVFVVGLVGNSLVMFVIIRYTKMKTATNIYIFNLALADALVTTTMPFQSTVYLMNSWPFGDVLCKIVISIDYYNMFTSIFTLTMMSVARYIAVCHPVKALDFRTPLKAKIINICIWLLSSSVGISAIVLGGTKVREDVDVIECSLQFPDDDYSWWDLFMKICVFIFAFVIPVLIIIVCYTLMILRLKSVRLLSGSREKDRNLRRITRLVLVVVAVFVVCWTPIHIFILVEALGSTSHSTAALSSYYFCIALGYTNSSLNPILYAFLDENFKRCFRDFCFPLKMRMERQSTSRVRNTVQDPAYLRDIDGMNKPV
Sequence of human KOR (P41145 whole entry): as the sequence (P41145 whole entry D155A) above, with A155D counted along it
T26 sequence (P41145 whole entry N141A): as the sequence (P41145 whole entry D155A) above, with N141A, A155D counted along it
T25 sequence (P41145 whole entry R271A): as the sequence (P41145 whole entry D155A) above, with A155D, R271A counted along it
T21 sequence (P41145 whole entry): as the sequence (P41145 whole entry D155A) above, with A155D counted along it
T29 sequence (P41145 whole entry D266A): as the sequence (P41145 whole entry D155A) above, with A155D, D266A counted along it
T27 sequence (P41145 whole entry Y320L): as the sequence (P41145 whole entry D155A) above, with A155D, Y320L counted along it
T23 sequence (P41145 whole entry R257A): as the sequence (P41145 whole entry D155A) above, with A155D, R257A counted along it
T22 sequence (P41145 whole entry Q115N): as the sequence (P41145 whole entry D155A) above, with Q115N, A155D counted along it
T10 sequence (P41145 whole entry D155A): as the sequence (P41145 whole entry D155A) above
T13 sequence (P41145 whole entry E297A): as the sequence (P41145 whole entry D155A) above, with A155D, E297A counted along it
T28 sequence (P41145 whole entry R170A): as the sequence (P41145 whole entry D155A) above, with A155D, R170A counted along it
T8 sequence (P41145 whole entry R170A): as the sequence (P41145 whole entry D155A) above, with A155D, R170A counted along it
T18 sequence (P41145 whole entry G319L): as the sequence (P41145 whole entry D155A) above, with A155D, G319L counted along it
T2 sequence (P41145 whole entry F283A): as the sequence (P41145 whole entry D155A) above, with A155D, F283A counted along it
T4 sequence (P41145 whole entry T94V): as the sequence (P41145 whole entry D155A) above, with T94V, A155D counted along it
T19 sequence (P41145 whole entry N141A): as the sequence (P41145 whole entry D155A) above, with N141A, A155D counted along it
T11 sequence (P41145 whole entry Y139L): as the sequence (P41145 whole entry D155A) above, with Y139L, A155D counted along it
T12 sequence (P41145 whole entry K227A): as the sequence (P41145 whole entry D155A) above, with A155D, K227A counted along it
T6 sequence (P41145 whole entry K200A): as the sequence (P41145 whole entry D155A) above, with A155D, K200A counted along it
T9 sequence (P41145 whole entry R271A): as the sequence (P41145 whole entry D155A) above, with A155D, R271A counted along it
T16 sequence (P41145 whole entry D334A): as the sequence (P41145 whole entry D155A) above, with A155D, D334A counted along it
T1 sequence (P41145 whole entry R274A): as the sequence (P41145 whole entry D155A) above, with A155D, R274A counted along it
T20 sequence (P41145 whole entry N322A): as the sequence (P41145 whole entry D155A) above, with A155D, N322A counted along it
T7 sequence (P41145 whole entry D266A): as the sequence (P41145 whole entry D155A) above, with A155D, D266A counted along it
T3 sequence (P41145 whole entry F114L): as the sequence (P41145 whole entry D155A) above, with F114L, A155D counted along it
T5 sequence (P41145 whole entry L253A): as the sequence (P41145 whole entry D155A) above, with A155D, L253A counted along it
T17 sequence (P41145 whole entry Y320L): as the sequence (P41145 whole entry D155A) above, with A155D, Y320L counted along it
T14 sequence (P41145 whole entry R257A): as the sequence (P41145 whole entry D155A) above, with A155D, R257A counted along it
T15 sequence (P41145 whole entry Q115N): as the sequence (P41145 whole entry D155A) above, with Q115N, A155D counted along it

## CN(C(=O)/C=C/c1ccoc1)[C@@H]1CC[C@@]2(O)[C@H]3Cc4ccc(O)c5c4[C@@]2(CCN3CC2CC2)[C@H]1O5 [Nalfurafine, nalfurafine]
[1]
  Emax: 83.3%
[2]
  Emax: 100%
[3]
  Emax: 48.7%
[4]
  Emax: 87.5%
[5]
  Emax: 107%
[6]
  Emax: 83.2%
[7]
  Emax: 101%
[8]
  Emax: 100 ± 8.6%
[9]
  Emax: 101 ± 8.2%
[10]
  Emax: 90.2%
[11]
  Emax: 113%
[12]
  Emax: 97.5%
[13]
  Emax: 101%
[14]
  Emax: 103%
[15]
  Emax: 67%
[16]
  Emax: 78%
[17]
  Emax: 65.9%
[18]
  Emax: 71%
[19]
  Emax: 90.6%
[20]
  Emax: 87.1%
[21]
  Emax%: 80%
[21]; HEK-293T
  Emax: 100 ± 4%
[22]
  FC vs wild type: 24
[22]; HEK-293T
  Emax: 60%
[23]
  FC vs wild type: 100
[23]; HEK-293T
  Emax: 104%
[24]
  FC vs wild type: 20 and < 10
[24]; HEK-293T
  Emax: 82%
[25]
  FC vs wild type: 112
[25]; HEK-293T
  Emax: 106%
[26]
  FC vs wild type: 7
[26]; HEK-293T
  Emax: 103%
[27]
  FC vs wild type: 186
[27]; HEK-293T
  Emax: 89.3%
[28]
  Emax: 57.6%
[29]
  FC vs wild type: 110
[29]; HEK-293T
  Emax: 107%
[30]
  Emax: 100 ± 2%
[30]; [31]
  activation at 1 pM: 34.6%
  activation at 3.162 pM: 50.4%
  activation at 10 pM: 75.7%
  activation at 31.62 pM: 89.3%
  activation at 0.0001 µM: 97.6%
  activation at 0.001 µM: 96.5%
  activation at 0.1 µM: 103%
  activation at 1 µM: 100%
  activation at […]: 94.1% and 99.5% and 96.9%
[30]; read-out: cAMP response
  activation at 1 pM: 42.4%
  activation at 3.162 pM: 56.3%
  activation at 10 pM: 78.7%
  activation at 31.62 pM: 90.8%
  activation at 0.0001 µM: 98.1%
  activation at 0.001 µM: 97.1%
  activation at 0.1 µM: 103%
  activation at 1 µM: 101%
  activation at […]: 95% (2×) and 99.8% and 97.5%
[30]; [32]
  activation at 1 pM: 34.6%
  activation at 3.162 pM: 50.4%
  activation at 10 pM: 75.7%
  activation at 31.62 pM: 89.3%
  activation at 0.0001 µM: 97.6%
  activation at 0.001 µM: 96.5%
  activation at 0.1 µM: 103%
  activation at 1 µM: 100%
  activation at […]: 94.1% and 99.5% and 96.9%
